Results taken from article PMC7249037, “Phenylpyrazalopyrimidines as Tyrosine Kinase Inhibitors: Synthesis, Antiproliferative Activity, and Molecular Simulations” (Molecules, 2020).
Where “and” joins values, the source holds several entries; their conditions need not be identical. Identical values can stand only once.

Key:
[1] = test system: CCRF-CEM cells; test: Cell proliferation assay (CellTiter 96); type: cell-based, human; conditions: for reducing the cell proliferation (in words): 24–96 h
Experimental: (§1) Human leukemia cell line CCRF-CEM (ATCC no. CCL-119), human ovarian adenocarcinoma cell line SK-OV-3 (ATCC no. HTB-77), human breast carcinoma cell line MDA-MB-231 (ATCC no.HTB-26), and human colon adenocarcinoma cell line HT-29 (ATCC no. HTB-38) were obtained from American Type Culture Collection. Cells were grown on 75 cm^2 cell culture flasks with […] (for leukemia cells) and EMEM (Eagle’s minimum essential medium) (for SK-OV-3, HT-29, MDA-MB-231 cells), supplemented with 10% fetal bovine serum (FBS), and 1% penicillin-streptomycin solution (10,000 units of penicillin and 10 mg of streptomycin in 0.9% NaCl) in a humidified atmosphere of 5% CO2, 95% air at 37 °C.
(§2) The cell proliferation assay was carried out using a CellTiter 96 aqueous one-solution cell proliferation assay kit (Promega, Madison, WI, USA). Briefly, upon reaching about 75–80% confluence, 5000 cells/well were plated in 96-well microplate in 100 μL of the medium. After seeding for 24 h, the cells were treated with 50 µM compound in triplicate. Doxorubicin (10 µM) was used as a positive control. […] The plate was returned to the incubator for 1 h in a humidified atmosphere at 37 °C. The absorbance of the formazan product was measured at 490 nm using a microplate reader. The blank control was recorded by measuring the absorbance at 490 nm with wells containing medium mixed with CellTiter 96 aqueous solution but no cells. The percentage of cell survival was calculated as the OD value of cells treated with test compound − OD value of culture medium/(OD value of control cells − OD value of culture medium) × 100%. The same strategy was used for generating a dose-response graph for compound 10.

[2] = test system: MDA-MB-231 cells; test: Cell proliferation assay (CellTiter 96); type: cell-based, human; conditions: for reducing the cell proliferation (in words): 24–96 h
Experimental: as §1, §2

[3] = test system: HT-29 cells; test: Cell proliferation assay (CellTiter 96); type: cell-based, human; conditions: for reducing the cell proliferation (in words): 24–96 h
Experimental: as §1
(§3) The cell proliferation assay was carried out using a CellTiter 96 aqueous one-solution cell proliferation assay kit (Promega, Madison, WI, USA). Briefly, upon reaching about 75–80% confluence, 5000 cells/well were plated in 96-well microplate in 100 μL of the medium. After seeding for 24 h, the cells were treated with 50 µM compound in triplicate. Doxorubicin (10 µM) was used as a positive control. At the end of the sample exposure period (72 h), 20 µL of CellTiter 96 aqueous solution was added. The plate was returned to the incubator for 1 h in a humidified atmosphere at 37 °C. The absorbance of the formazan product was measured at 490 nm using a microplate reader. The blank control was recorded by measuring the absorbance at 490 nm with wells containing medium mixed with CellTiter 96 aqueous solution but no cells. The percentage of cell survival was calculated as the OD value of cells treated with test compound − OD value of culture medium/(OD value of control cells − OD value of culture medium) × 100%. The same strategy was used for generating a dose-response graph for compound 10.

[4] = test system: SK-OV-3 cells; test: Cell proliferation assay (CellTiter 96); type: cell-based, human; conditions: for reducing the cell proliferation (in words): 24–96 h; for IC50: SK-OV-3 cells, 72 h incubation
Experimental: as §1, §3

[5] = target: T1, c-Src (Homo sapiens, UniProt P12931); test: c-Src kinase activity assay (Transcreener ADP fluorescence intensity); type: biochemical; parameters: 0.7 nM of His6-Src kinase domain in kinase buffer; His6; conditions: in vitro Src kinase inhibition, His6-Src kinase domain, triplicate
Experimental: In summary, the kinase reaction was started in the 384-well low volume black microplate with the incubation of 2.5 μL of the reaction cocktail (0.7 nM of His6-Src kinase domain in kinase buffer) with 2.5 μL of prediluted compounds (dissolved in 10% DMSO, 4× target concentration) for 10 min at room temperature using microplate shaker. The reaction cocktail was made using the kinase buffer HEPES (200 mM, pH 7.5), MgCl2 (16 mM), EGTA (8 mM), DMSO (4%), Brij-35 (0.04%), and 2-mercaptoethanol (43 mM). The kinase reaction was started by adding 5 μL of ATP/substrate (40 μM/600 μM) cocktail and incubated for 30 min at room temperature on a microplate shaker. Src optimal peptide ([…]) was used as the substrate for the kinase reaction. The kinase reaction was stopped by adding 10 μL of the 1× ADP Detection Mixture to the enzyme reaction mixture and mixed using a plate shaker. The mixture was incubated at room temperature for 1 h, and the fluorescence intensity was measured. The 1× ADP Detection Mixture was prepared by adding ADP^2 Antibody-IRDyeR QC-1 (10 μg/mL) and ADP Alexa594 Tracer (8 nM) to Stop and Detect Buffer B(1×). The fluorescence Intensity measurements were performed using a fluorescence intensity optical module using the excitation of 580 nm and emission of 630 nm with bandwidths of 10 nm by Optima, BMG Labtech microplate reader (BMG Labtech, Ortenberg, Germany). The IC50 values of the compounds were calculated using ORIGIN 6.0 (Origin Lab, Microcal Software, Inc. Northhampton, MA, USA) software. […] All the experiments were carried out in triplicate.
Target sequence in this assay (P12931 270-523 limits assumed): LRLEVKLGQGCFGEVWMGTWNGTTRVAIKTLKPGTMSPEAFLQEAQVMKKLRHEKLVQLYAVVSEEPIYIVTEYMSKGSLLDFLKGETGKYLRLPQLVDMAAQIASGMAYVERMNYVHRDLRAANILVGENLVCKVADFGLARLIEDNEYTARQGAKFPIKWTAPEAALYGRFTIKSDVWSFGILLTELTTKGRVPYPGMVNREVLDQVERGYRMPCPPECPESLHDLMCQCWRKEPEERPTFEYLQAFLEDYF

[6] = target: T2, Akt1 (Homo sapiens, UniProt P31749); test: Kinase panel, radiometric filter-binding (Reaction Biology); type: biochemical; conditions: 200 µM ATP, NA = not active, values above 1 µM estimated from curve fit
T2 construct: purchased Invitrogen (assay run by Reaction Biology Corporation) PR3878D
T2 sequence (P31749 whole entry): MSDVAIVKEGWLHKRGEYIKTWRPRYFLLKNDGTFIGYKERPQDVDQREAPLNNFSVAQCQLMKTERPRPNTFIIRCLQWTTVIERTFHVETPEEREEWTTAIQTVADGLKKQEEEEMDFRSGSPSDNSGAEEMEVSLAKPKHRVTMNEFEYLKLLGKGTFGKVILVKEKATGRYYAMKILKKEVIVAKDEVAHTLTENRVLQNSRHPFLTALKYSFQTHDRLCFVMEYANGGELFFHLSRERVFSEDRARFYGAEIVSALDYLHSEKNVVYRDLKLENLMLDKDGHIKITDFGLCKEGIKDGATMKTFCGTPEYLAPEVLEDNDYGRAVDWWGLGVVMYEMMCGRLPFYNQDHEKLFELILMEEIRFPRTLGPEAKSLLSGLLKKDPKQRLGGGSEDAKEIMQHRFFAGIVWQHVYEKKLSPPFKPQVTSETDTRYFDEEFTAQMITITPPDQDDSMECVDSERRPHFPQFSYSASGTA
Experimental: Required cofactors were added individually to each kinase reaction. […] The serial dilution was conducted by Integra Viaflo Assist in DMSO.

[7] = target: T1, c-Src; test: as above; type: biochemical; parameters: purchased Invitrogen (assay run by Reaction Biology Corporation) P3044; conditions: 200 µM ATP, values above 1 µM estimated from curve fit
Target sequence in this assay (P12931 whole entry, the tested form may be a part): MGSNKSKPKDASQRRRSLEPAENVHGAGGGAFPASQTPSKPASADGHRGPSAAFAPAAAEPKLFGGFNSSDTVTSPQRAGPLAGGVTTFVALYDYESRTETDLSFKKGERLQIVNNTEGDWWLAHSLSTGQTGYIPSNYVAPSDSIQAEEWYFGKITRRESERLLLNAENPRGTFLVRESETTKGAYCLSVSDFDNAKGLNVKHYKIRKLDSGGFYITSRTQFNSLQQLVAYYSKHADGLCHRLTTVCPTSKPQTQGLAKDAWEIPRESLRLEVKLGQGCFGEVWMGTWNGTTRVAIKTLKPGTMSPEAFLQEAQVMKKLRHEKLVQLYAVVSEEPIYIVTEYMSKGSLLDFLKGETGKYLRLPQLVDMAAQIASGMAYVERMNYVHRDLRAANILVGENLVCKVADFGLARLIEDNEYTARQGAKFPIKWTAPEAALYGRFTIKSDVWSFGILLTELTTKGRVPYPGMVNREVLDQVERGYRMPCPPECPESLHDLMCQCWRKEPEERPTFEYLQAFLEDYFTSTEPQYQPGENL

[8] = target: T3, Lck (Homo sapiens, UniProt P06239); test: as above; type: biochemical; conditions: 200 µM ATP, values above 1 µM estimated from curve fit
T3 construct: purchased Invitrogen (assay run by Reaction Biology Corporation) P3043
T3 sequence (P06239 whole entry): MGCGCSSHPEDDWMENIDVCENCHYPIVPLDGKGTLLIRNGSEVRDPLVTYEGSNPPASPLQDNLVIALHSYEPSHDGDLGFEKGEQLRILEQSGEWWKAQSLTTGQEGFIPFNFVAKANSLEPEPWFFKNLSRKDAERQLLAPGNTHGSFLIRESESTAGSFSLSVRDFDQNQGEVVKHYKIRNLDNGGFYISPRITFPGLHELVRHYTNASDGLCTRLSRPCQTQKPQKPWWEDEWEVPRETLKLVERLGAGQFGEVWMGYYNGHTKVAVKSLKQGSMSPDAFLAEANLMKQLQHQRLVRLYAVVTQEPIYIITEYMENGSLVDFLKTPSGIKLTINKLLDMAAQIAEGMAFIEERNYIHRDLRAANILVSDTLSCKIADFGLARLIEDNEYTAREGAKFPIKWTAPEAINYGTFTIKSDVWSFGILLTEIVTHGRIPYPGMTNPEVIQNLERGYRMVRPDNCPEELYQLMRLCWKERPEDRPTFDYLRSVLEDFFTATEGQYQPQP

[9] = target: T4, Btk (Homo sapiens, UniProt Q06187); test: as above; type: biochemical; conditions: 200 µM ATP, values above 1 µM estimated from curve fit
T4 construct: purchased Invitrogen (assay run by Reaction Biology Corporation) PV3363
T4 sequence (Q06187 whole entry): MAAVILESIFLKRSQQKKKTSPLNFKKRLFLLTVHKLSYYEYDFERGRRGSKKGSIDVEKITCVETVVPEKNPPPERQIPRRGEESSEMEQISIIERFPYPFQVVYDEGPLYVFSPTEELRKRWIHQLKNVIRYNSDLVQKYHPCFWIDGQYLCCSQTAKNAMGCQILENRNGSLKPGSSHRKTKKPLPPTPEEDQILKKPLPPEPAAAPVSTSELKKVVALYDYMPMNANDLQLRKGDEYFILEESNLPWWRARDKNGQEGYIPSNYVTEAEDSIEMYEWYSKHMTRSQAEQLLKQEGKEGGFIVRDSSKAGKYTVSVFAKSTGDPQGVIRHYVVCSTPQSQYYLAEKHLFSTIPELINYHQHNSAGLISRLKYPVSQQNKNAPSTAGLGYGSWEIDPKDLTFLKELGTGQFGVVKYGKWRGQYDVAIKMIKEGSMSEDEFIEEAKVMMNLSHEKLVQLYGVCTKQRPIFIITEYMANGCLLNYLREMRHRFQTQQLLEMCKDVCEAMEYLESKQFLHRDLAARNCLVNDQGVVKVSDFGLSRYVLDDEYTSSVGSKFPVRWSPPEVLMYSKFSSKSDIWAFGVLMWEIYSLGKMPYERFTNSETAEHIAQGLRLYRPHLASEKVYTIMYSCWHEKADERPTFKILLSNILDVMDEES

| Structure (SMILES) | reducing the cell proliferation (in words) ([1]; 50 µM) | reducing the cell proliferation (in words) ([2]; MDA-MB-231, 50 µM) | reducing the cell proliferation (in words) ([3]; HT-29, 50 µM) | reducing the cell proliferation (in words) ([4]; SK-OV-3, 50 µM) | IC50 [5] | other results |
| --- | --- | --- | --- | --- | --- | --- |
| CC(=O)Cn1nc(-c2ccccc2)c2c(N)ncnc21 [Compound 2, 1-(4-Amino-3-phenyl-1H-pyrazolo[3,4-d]pyrimidin-1-yl)propan-2-one] | inactive | inactive | inactive | inactive | – | – |
| CC(=O)C(=Cc1cccc(C)c1)n1nc(-c2ccccc2)c2c(N)ncnc21 [Compound 4, 3-(4-Amino-3-phenyl-1H-pyrazolo[3,4-d]pyrimidin-1-yl)-4-m-tolylbut-3-en-2-one] | – | – | – | – | 24.7 µM | – |
| CC(=O)C(=Cc1ccc(N(C)C)cc1)n1nc(-c2ccccc2)c2c(N)ncnc21 [Compound 7, 3-(4-Amino-3-phenyl-1H-pyrazolo[3,4-d]pyrimidin-1-yl)-4-(4-(dimethylamino)phenyl)but-3-en-2-one] | inactive | inactive | inactive | inactive | 36.9 µM | – |
| COc1ccc(C=C(C(C)=O)n2nc(-c3ccccc3)c3c(N)ncnc32)cc1 [Compound 6, 3-(4-Amino-3-phenyl-1H-pyrazolo[3,4-d]pyrimidin-1-yl)-4-(4-methoxyphenyl)but-3-en-2-one] | – | – | – | – | 21.7 µM | – |
| CC(=O)C(=Cc1ccc(Cl)cc1Cl)n1nc(-c2ccccc2)c2c(N)ncnc21 [Compound 11, 3-(4-Amino-3-phenyl-1H-pyrazolo[3,4-d]pyrimidin-1-yl)-4-(2,4-dichlorophenyl)but-3-en-2-one] | – | – | – | – | – | IC50 ([4]; Homo sapiens): 34.3 µM |
| CC(=O)C(=Cc1cccc([N+](=O)[O-])c1)n1nc(-c2ccccc2)c2c(N)ncnc21 [Compound 9, 3-(4-Amino-3-phenyl-1H-pyrazolo[3,4-d]pyrimidin-1-yl)-4-(3-nitrophenyl)but-3-en-2-one] | inactive | inactive | inactive | inactive | – | – |
| CC(=O)C(=Cc1ccccc1Cl)n1nc(-c2ccccc2)c2c(N)ncnc21 [Compound 12, 3-(4-Amino-3-phenyl-1H-pyrazolo[3,4-d]pyrimidin-1-yl)-4-(2-chlorophenyl)but-3-en-2-one] | inactive | inactive | inactive | inactive | – | – |
| COc1cccc2c1C(=O)c1c(O)c3c(c(O)c1C2=O)C[C@@](O)(C(=O)CO)C[C@@H]3O[C@H]1C[C@H](N)[C@H](O)[C@H](C)O1 [Dox, Doxorubicin, reference compound] | – | – | – | – | – | inhibition at 1 µM ([1]; Homo sapiens, Dox positive control (1 µM in Figure 3, 10 µM in method), 96 h): 73%; inhibition at 1 µM ([2]; Homo sapiens, MDA-MB-231, Dox positive control (1 µM in Figure 3, 10 µM in method), 96 h): 64%; inhibition at 1 µM ([3]; Homo sapiens, HT-29, Dox positive control (1 µM in Figure 3, 10 µM in method), 96 h): 75%; inhibition at 1 µM ([4]; Homo sapiens, SK-OV-3, Dox positive control (1 µM in Figure 3, 10 µM in method), 96 h): 73% |
| CC(=O)C(=Cc1ccc(Cl)cc1)n1nc(-c2ccccc2)c2c(N)ncnc21 [Compound 10, 3-(4-Amino-3-phenyl-1H-pyrazolo[3,4-d]pyrimidin-1-yl)-4-(4-chlorophenyl)but-3-en-2-one] | – | – | – | – | – | inhibition at 50 µM ([1]; Homo sapiens, 50 µM, 96 h): 79%; inhibition at 50 µM ([2]; Homo sapiens, MDA-MB-231, 50 µM, 96 h): 60%; IC50 [6]: > 150 µM; IC50 [7]: 60.4 µM and 64.1 µM; IC50 [8]: 110 µM; inhibition at 50 µM ([3]; Homo sapiens, HT-29, 50 µM, 96 h): 90%; inhibition at 50 µM ([4]; Homo sapiens, SK-OV-3, 50 µM, 96 h): 79%; IC50 ([4]; Homo sapiens): 25.5 µM; IC50 [9]: 90.5 µM and 95.4 µM |
| CC(=O)/C(=C\c1ccc(-c2ccccc2)cc1)n1nc(-c2ccccc2)c2c(N)ncnc21 [Compound 5, 3-(4-Amino-3-phenyl-1H-pyrazolo[3,4-d]pyrimidin-1-yl)-4-p-biphenylbut-3-en-2-one] | – | – | – | – | 192 µM | – |
| CC(=O)C(=Cc1ccc(C)cc1)n1nc(-c2ccccc2)c2c(N)ncnc21 [Compound 3, 3-(4-Amino-3-phenyl-1H-pyrazolo[3,4-d]pyrimidin-1-yl)-4-p-tolylbut-3-en-2-one] | – | – | – | – | 32.9 µM | – |
